US11414428B2, “Inhibitors of tryptophan dioxygenases (IDO1 and TDO) and their use in therapy” (Auckland UniServices Limited, priority 2015, dated 2022)

What was measured:
[1] = Cell viability (MTT colourimetric assay) in the IDO1 cell-based assay; settings: mouse, same experiment as cellular IDO1 assay, read-out: Cell cytotoxicity IC50
Description: The viability of the cells in each well in the same experiment was determined using the 3-(4,5-dimethylthiazolyl-2-yl)-2,5-diphenyltetrazolium bromide ([…]) colourimetric assay. After the removal of the supernatant for determination of IDO1 inhibition, the cells were incubated with MU (500 μg/mL) until crystal formation was observed. Plates were centrifuged for 15 min at 2500 g, and then all the supernatant in then wells was discarded. DMSO (100 μL/well) was added to dissolve the crystals and then the absorbance in each well was measured at 570 nm. Cell viability in each well was expressed as a percentage of untreated controls. Triplicate cultures were used for all experiments unless stated otherwise.

[2] = Cell viability (MTT colourimetric assay) in the TDO cell-based assay; settings: mouse, same experiment as cellular TDO assay, read-out: Cell cytotoxicity IC50
Description: The viability of the cells in each well in the same experiment was determined using the 3-(4,5-dimethylthiazolyl-2-yl)-2,5-diphenyltetrazolium bromide ([…]) colourimetric assay.

[3] = target: Recombinant human IDO1 (rhIDO1) (Homo sapiens (Human), UniProt P14902); assay: Enzymatic assay for IDO1 activity; format: biochemical; settings: rhIDO1 9 nM, 80 μM TRP, 37° C. 30 min
Chain of Recombinant human IDO1 (rhIDO1) (P14902 whole entry): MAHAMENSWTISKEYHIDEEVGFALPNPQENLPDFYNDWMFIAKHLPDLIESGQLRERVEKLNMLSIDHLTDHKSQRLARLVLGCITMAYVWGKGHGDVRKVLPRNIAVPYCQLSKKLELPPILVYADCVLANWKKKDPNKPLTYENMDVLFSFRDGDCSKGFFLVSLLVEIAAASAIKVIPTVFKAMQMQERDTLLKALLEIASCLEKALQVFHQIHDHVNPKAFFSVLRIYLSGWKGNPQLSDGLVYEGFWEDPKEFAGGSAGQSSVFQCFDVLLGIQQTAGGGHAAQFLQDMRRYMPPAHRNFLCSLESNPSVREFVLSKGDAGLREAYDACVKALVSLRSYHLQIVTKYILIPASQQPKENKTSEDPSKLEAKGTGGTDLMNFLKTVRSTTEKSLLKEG
Description: Recombinant human IDO1 (rhIDO1) was expressed and purified from cultures of EC538 strain of E. coli transformed with pREP4 and pQE9-IDO plasmid. Reaction mixes were set up in 384-well microplates containing 50 mM phosphate buffer, 10 mM ascorbic, 10 μM methylene blue, 100 μg/mL catalase, 80 μM TRP, 0.01% Tween 20 (v/v) mixed with rhIDO1 (15 μL) at a final concentration of 9 nM in a total volume of 30 μL assay medium. The plates were incubated at 37° C. for 30 min, and the enzymatic reaction was terminated by adding piperidine (200 mM) and heated at 65° C. for 20 min. Fluorescence intensity was read at λex 400 nm and λem 500 nm. Test compounds were dissolved in 100% DMSO and pre-diluted in assay medium prior to adding rhIDO1. IDO1 inhibition (%) was calculated as
[formula] All experiments were carried out in triplicates, and statistical Analyses were conducted in Prism v5 (Graphpad Software, Inc., La Jolla, Calif., USA). Cell-Based Assay for IDO1 Inhibition

[4] = target: full length human TDO (GL261 cells) (Homo sapiens (Human), UniProt P48775); assay: Cell-based assay for TDO inhibition; settings: GL261 cells over-expressing human TDO, 24 h; read-out: Cellular IC50
Chain of full length human TDO (GL261 cells) (P48775 whole entry): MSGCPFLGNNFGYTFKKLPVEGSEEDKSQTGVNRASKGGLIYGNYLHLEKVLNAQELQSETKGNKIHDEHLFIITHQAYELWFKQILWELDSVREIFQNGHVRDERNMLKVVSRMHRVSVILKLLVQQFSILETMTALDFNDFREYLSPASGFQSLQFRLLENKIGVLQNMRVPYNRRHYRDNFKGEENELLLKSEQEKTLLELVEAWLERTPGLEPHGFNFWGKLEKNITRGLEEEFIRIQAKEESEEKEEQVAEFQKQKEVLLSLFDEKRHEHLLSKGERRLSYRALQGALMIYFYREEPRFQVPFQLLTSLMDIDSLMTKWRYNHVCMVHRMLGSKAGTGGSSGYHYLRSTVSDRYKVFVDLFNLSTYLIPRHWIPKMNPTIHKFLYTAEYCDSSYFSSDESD
Description: Culture supernatant from each well was then transferred into a fresh, flat-bottomed 96-well plate, and kynurenine content was determined as described above for the IDO1 assay, and the concentration that inhibited 50% cellular enzyme activity was calculated.

| SMILES | IC50 [3] [µM] | IC50 [1] [µM] | IC50 [2] [µM] | IC50 [4] [µM] |
| --- | --- | --- | --- | --- |
| Cc1nc2onc(N)c2c(C)c1Cl [Compound 1, 5-Chloro-4,6-dimethylisoxazolo[5,4-b]pyridin-3-amine] |  | > 100 | > 100 |  |
| Cc1nc2onc(NC(=O)Nc3ccc(OC(F)(F)F)cc3)c2c(C)c1Cl [Compound 2, 1-(5-Chloro-4,6-dimethylisoxazolo[5,4-b]pyridin-3-yl)-3-(4-(trifluoromethoxy)phenyl)urea] | > 100 | > 100 |  |  |
| Cc1nc2onc(NC(=O)Nc3ccc(C#N)cc3)c2c(C)c1Cl [Compound 3, 1-(5-chloro-4,6-dimethylisoxazolo[5,4-b]pyridin-3-yl)-3-(4-cyanophenyl)urea] | 10 to 100 | > 100 |  |  |
| Cc1nc2onc(NC(=O)Oc3ccccc3)c2c(C)c1Cl [Compound 4, Phenyl (5-chloro-4,6-dimethylisoxazolo[5,4-b]pyridin-3-yl)carbamate] | 1 to 10 | > 100 | > 100 | 10 to 100 |
| Cc1nc2onc(NC(=O)Nc3ccccc3Cl)c2c(C)c1Cl [Compound 6, 1-(5-Chloro-4,6-dimethylisoxazolo[5,4-b]pyridin-3-yl)-3-(2-chlorophenyl)urea] | > 100 | > 100 |  |  |
| Cc1nc2onc(NC(=O)Nc3ccc(Cl)cc3)c2c(C)c1Cl [Compound 8, 1-(5-Chloro-4,6-dimethylisoxazolo[5,4-b]pyridin-3-yl)-3-(4-chlorophenyl)urea] | > 100 | > 100 |  |  |
| COc1ccccc1NC(=O)Nc1noc2nc(C)c(Cl)c(C)c12 [Compound 11, 1-(5-Chloro-4,6-dimethylisoxazolo[5,4-b]pyridin-3-yl)-3-(2-methoxyphenyl)urea] | 10 to 100 | > 100 |  |  |
| COc1ccc(NC(=O)Nc2noc3nc(C)c(Cl)c(C)c23)cc1 [Compound 13, 1-(5-Chloro-4,6-dimethylisoxazolo[5,4-b]pyridin-3-yl)-3-(4-methoxyphenyl)urea] | > 100 | > 100 |  |  |
| Cc1nc2onc(NC(=O)Nc3ccccc3C(F)(F)F)c2c(C)c1Cl [Compound 14, 1-(5-Chloro-4,6-dimethylisoxazolo[5,4-b]pyridin-3-yl)-3-(2-(trifluoromethyl)phenyl)urea] | > 100 | > 100 |  |  |
| Cc1nc2onc(NC(=O)Nc3ccccc3)c2c(C)c1Cl [Compound 17, 1-(5-Chloro-4,6-dimethylisoxazolo[5,4-b]pyridin-3-yl)-3-phenylurea] | 10 to 100 | > 100 |  |  |
| Cc1nc2onc(NC(=O)Cc3ccccc3)c2c(C)c1Cl [Compound 18, N-(5-Chloro-4,6-dimethylisoxazolo[5,4-b]pyridin-3-yl)-2-phenylacetamide] | > 100 |  |  |  |
| Cc1nc2onc(NC(=O)Cc3ccc(OC(F)(F)F)cc3)c2c(C)c1Cl [Compound 19, N-(5-Chloro-4,6-dimethylisoxazolo[5,4-b]pyridin-3-yl)-2-(4-(trifluoromethoxy)phenyl)acetamide] | > 100 | > 100 |  |  |
| CC(=O)Nc1noc2nc(C)c(Cl)c(C)c12 [Compound 20, N-(5-Chloro-4,6-dimethylisoxazolo[5,4-b]pyridin-3-yl)acetamide] | > 100 | > 100 |  |  |

More lines, main results first:

| IC50 [3] [µM] | SMILES | IC50 [1] [µM] | IC50 [2] [µM] | IC50 [4] [µM] |
| --- | --- | --- | --- | --- |
| > 100 | Cc1nc2onc(NC(=O)Nc3cccc(Cl)c3)c2c(C)c1Cl [Compound 7, 1-(5-Chloro-4,6-dimethylisoxazolo[5,4-b]pyridin-3-yl)-3-(3-chlorophenyl)urea] | > 100 |  |  |
| > 100 | Cc1nc2onc(NC(=O)Nc3ccccc3OC(F)(F)F)c2c(C)c1Cl [Compound 9, 1-(5-Chloro-4,6-dimethylisoxazolo[5,4-b]pyridin-3-yl)-3-(2-(trifluoromethoxy)phenyl)urea] | > 100 |  |  |
| > 100 | Cc1nc2onc(NC(=O)Nc3cccc(OC(F)(F)F)c3)c2c(C)c1Cl [Compound 10, 1-(5-Chloro-4,6-dimethylisoxazolo[5,4-b]pyridin-3-yl)-3-(3-(trifluoromethoxy)phenyl)urea] | > 100 |  |  |
| > 100 | COc1cccc(NC(=O)Nc2noc3nc(C)c(Cl)c(C)c23)c1 [Compound 12, 1-(5-Chloro-4,6-dimethylisoxazolo[5,4-b]pyridin-3-yl)-3-(3-methoxyphenyl)urea] | > 100 |  |  |
| > 100 | Cc1nc2onc(NC(=O)Nc3cccc(C(F)(F)F)c3)c2c(C)c1Cl [Compound 15, 1-(5-Chloro-4,6-dimethylisoxazolo[5,4-b]pyridin-3-yl)-3-(3-(trifluoromethyl)phenyl)urea] | > 100 | > 100 | 10 to 100 |
| > 100 | Cc1nc2onc(NC(=O)Nc3ccc(C(F)(F)F)cc3)c2c(C)c1Cl [Compound 16, 1-(5-Chloro-4,6-dimethylisoxazolo[5,4-b]pyridin-3-yl)-3-(4-(trifluoromethyl)phenyl)urea] | > 100 |  |  |
